Assay results from patent publication US20030077222A1, “Individualization of therapy with analgesics” (McGill University, priority 2001, published 2003).
Like-named read-outs stand apart in the source and are kept apart here. Marks after values point to notes of the source that are not given here.

Key:
[1] = cited from earlier work
1X-Ab = test: Competitive antigen ELISA, cross-reactivity of 1X-Ab; format: binding, rabbit; settings: for % Cross-Reaction 1X-Ab: competitive antigen ELISA, 0 = absence of inhibition or inhibition no higher than 40% at highest concentration tested (5×10^−3 M)
Method: (§1) Four mature females New Zealand white rabbits (Charles River Canada, St-Constant, Que., Canada) are used for antibody production. The protocol employed in this study was approved by the McGill University Animal Care Committee in accordance with the guidelines from the Canadian Council on Animal Care. Antibodies of the present invention may be monoclonal or polyclonal antibodies.
(§2) A 0.5 mL aliquot of the emulsion ([…] of antigen) is injected per rabbit intramuscularly or subcutaneously. Rabbits are subsequently boosted at intervals of three weeks with […] of antigen emulsified in incomplete Freund's adjuvant. […] Antisera are stored at 4° C. in the presence of 0.01% sodium azide.
(§3) Buffers and water without additives are filtered through millipore filters and kept for 1 week. BSA, antibodies, Tween™ 20 and horse radish peroxidase conjugates are added to these buffers and water just prior to use. Urine samples are usually collected 4 hours after drinking a cup of coffee (instant or brewed with approximately 100 mg of caffeine per cup) and stored at −80° C. The urine samples are diluted 10 times with sodium phosphate buffer (620 mosm, pH 7.50) and are subsequently diluted with water to give concentrations of AAMU and 1X no higher than 3×10^−6 M in the ELISA. All the pipettings are done with an eight-channel pipette, except those of the antibody and sample solutions. Starting with the last well, 100 μL of a carbonate buffer (100 mM, pH 9.6) containing 2.5 μg mL−^1 antibodies are added to each well. After 90 min. at room temperature, the wells are washed three times with […] of TPB: isotonic sodium phosphate buffer (310 mosm, pH 7.50) containing 0.05% Tween™ 20.
(§4) After the initial wash, unoccupied sites are blocked by incubation for 90 min. at room temperature with 100 μL TBP containing 3% BSA. The wells are washed four times with 100 μL TPB. […] The microplate is gently shaken with an orbital shaker at room temperature for 3-4 hours. The wells are washed three times with 100 μL TPB containing 1% BSA and three times with water containing 0.05% Tween™ 20. To the washed plate is added 150 μL of a substrate buffer composed of citric acid (25 mM) and sodium phosphate dibasic buffer (50 mM, pH 5.0) containing 0.06% hydrogen peroxide and 0.04% o-phenylenediamine hydrochloride.
(§5) Buffers and water without additives were filtered through millipore filters and kept for 1 week. BSA, antibodies, Tween™ 20 and horse radish peroxidase conjugates were added to these buffers and water just prior to use. Urine samples were usually collected 4 hours after drinking a cup of coffee (instant or brewed with approximately 100 mg of caffeine per cup) and stored at −80° C. They were diluted 10 times with sodium phosphate buffer (620 mosm, pH 7.50) and were subsequently diluted with water to give concentrations of AAMU and 1X no higher than 3×10^−6 M in the ELISA. All the pipettings were done with an eight-channel pipette, except those of the antibody and sample solutions. Starting with the last well, 100 μL of a carbonate buffer (100 mM, pH 9.6) containing 2.5 μg mL−^1 antibodies was pipetted. After 90 min. at room temperature, the wells were washed three times with 100 μL of TPB: isotonic sodium phosphate buffer (310 mosm, pH 7.50) containing 0.05% Tween™ 20.
(§6) After the initial wash, unoccupied sites were blocked by incubation for 90 min. at room temperature with 100 μL TBP containing 3% BSA. The wells were washed four times with 100 μL TPB. […] The microplate was gently shaken with an orbital shaker at room temperature for 3-4 hours. The wells were washed three times with […] TPB containing 1% BSA and three times with water containing 0.05% Tween™ 20. To the washed plate was added 150 μL of a substrate buffer composed of citric acid (25 mM) and sodium phosphate dibasic buffer (50 mM, pH 5.0) containing 0.06% hydrogen peroxide and 0.04% o-phenylenediamine hydrochloride.

AAMU-Ab = test: Competitive antigen ELISA, cross-reactivity of AAMU-Ab; format: binding, rabbit; settings: for % Cross-Reaction AAMU-Ab: competitive antigen ELISA, 0 = absence of inhibition or inhibition no higher than 40% at highest concentration tested (5×10^−3 M)
Method: as §1, §2, §3, §4, §5, §6

[2] = cited from earlier work; remark: listed apart in the source

Structure (SMILES)	% Cross-Reaction 1X-Ab (1X-Ab)	% Cross-Reaction AAMU-Ab (AAMU-Ab)	other results
COc1cccc(C2(O)CCCCC2CN(C)C)c1 (stereo not drawn) [tramadol]	–	–	experimental pain model procedures with statistically significant effects ([1]; extensive metabolizers (CYP2D6), 15 individuals): seven of seven; experimental pain model procedures with statistically significant effects ([1]; poor metabolizers (CYP2D6), 12 individuals): three of seven
Cn1c(=O)c2c(ncn2C)n(C)c1=O [1,3,7-Trimethyl Xanthine (Caffeine), 1,3,7-Trimethyl Xanthine]	0%	0%	–
CC(=O)Nc1c(N)n(C)c(=O)[nH]c1=O [5-Acetamino-6-amino-1-methyluracil]	0%	100%	IC50 (AAMU-Ab; read-out: concentration required for 50% inhibition in the competitive antigen ELISA, AAMU-Ab): 1.5 µM
O=c1cc[nH]c(=O)[nH]1 [Uracil]	0%	0%	–
Cn1c(=O)[nH]c2[nH]c(=O)n(C)c2c1=O [1,7-Dimethyluric acid]	0%	0%	–
CC(=O)Nc1c(N)n(C)c(=O)n(C)c1=O [5-Acetamino-6-amino-1,3-dimethyluracil]	0%	0%	–
CC(=O)Nc1c(N)[nH]c(=O)[nH]c1=O [5-Acetamino-6-amino-uracil]	0%	0.6%	–
O=c1[nH]cnc2nc[nH]c12 [Hypoxanthine]	0%	0%	–
O=c1[nH]c(=O)c2[nH]c(=O)[nH]c2[nH]1 [Uric acid]	0%	0%	–
Cc1nc2[nH]c(=O)[nH]c(=O)c2[nH]1 [8-Methyl Xanthine]	0%	0%	–
Cn1c(=O)[nH]c(=O)c2[nH]cnc21 [3-Methyl Xanthine]	0%	0%	–
Cn1c(=O)[nH]c2ncn(C)c2c1=O [1,7-Dimethyl Xanthine (Paraxanthine), 1,7-Dimethyl Xanthine]	0.5%	0%	–
Cn1c(=O)[nH]c2nc[nH]c2c1=O [1-Methyl Xanthine (1X), 1-Methyl Xanthine]	100%	0%	IC50 (1X-Ab; read-out: concentration required for 50% inhibition in the competitive antigen ELISA, 1X-Ab): 10 µM
Cn1c(=O)c2[nH]cnc2n(C)c1=O [1,3-Dimethyl Xanthine (Theophylline), 1,3-Dimethyl Xanthine]	0.2%	0%	–
Nc1nc2nc[nH]c2c(=O)[nH]1 [Guanine]	0%	0%	–
Cn1cnc2[nH]c(=O)[nH]c(=O)c21 [7-Methyl Xanthine]	0%	0%	–
Cn1cnc2c1c(=O)[nH]c(=O)n2C [3,7-Dimethyl Xanthine (Theobromine), 3,7-Dimethyl Xanthine]	0%	0%	–
Cn1c(=O)[nH]c2[nH]c(=O)[nH]c2c1=O [1-Methyluric acid]	11%	0%	–
O=c1[nH]c(=O)c2[nH]cnc2[nH]1 [Xanthine]	0%	0^a %	–
Nc1ccc(S(=O)(=O)c2ccc(N)cc2)cc1 [dapsone]	–	–	adverse reactions to dapsone ([2]; fast acetylators): 17%; adverse reactions to dapsone ([2]; slow acetylators): 46%
